Reference: patent publication US7101872B2, “Farnesyl dibenzodiazepinone, and processes for its production” (Ecopia BioSciences, Inc., priority 2003, dated 2006)

Test system: C6 glioblastoma cell-bearing mice
Assay: In vivo glioma model, treatment from day 10 after inoculation
Set-up: species or system Mus musculus nude mice
Settings: 20–30 mg/kg; versus vehicle-treated mice (FIG. 11)
Experimental: The aim of this study was to test whether ECO-04601 administered by i.p. route prevents or delays tumor growth in C6 glioblastoma cell-bearing mice, and to determine an effective dosage regimen.
Animal experiments were performed according to ethical guidelines of animal experimentation (Charte du comité d'éthique du CNRS, juillet 2003) and the English guidelines for the welfare of animals in experimental neoplasia (WORKMAN, P., […], P., BALKWILL, F., et al. (1998). United Kingdom Coordinating Committee on Cancer Research (UKCCCR) Guidelines for the welfare of animals in experimental neoplasia (Second Edition, July 1997; British Journal of Cancer 77:1–10). Any dead or apparently sick mice were promptly removed and replaced with healthy mice. Sick mice were euthanized upon removal from the cage. Animals were maintained in rooms under controlled conditions of temperature (23±2° C.), humidity (45±5%), photoperiodicity (12 hrs light/12 hrs dark) and air exchange. […] The cells were counted in a hemocytometer and their viability assessed by 0.25% trypan blue exclusion. […]
In a second series of experiments, treatment started at day 10 following inoculation of C6 cells when tumors became palpable (around 100 to 200 mm^3). […] Tumor volume was measured every second day until the end of the treatment using callipers. […]

CC(C)=CCC/C(C)=C/CC/C(C)=C/CN1C(=O)c2cccc(O)c2Nc2c(O)cc(O)cc21 [ECO-04601, 10-farnesyl-4,6,8-trihydroxy-dibenzodiazepin-11-one]
Histological analysis of tumor sections: cell density was decreased and the nuclei of remaining tumor cells appeared larger and pycnotic
